# US11964943B2, “3,5-diarylidenyl-n-substituted-piperid-4-one-derived inhibitors of Stat3 pathway activity and uses thereof” (priority 2017, dated 2024)
# “And” between values parts separate entries of the source, which are not always exact repeats. Equal values may be shown once. Read-outs that look alike come from different tables or passages of the source.
# What was measured:
# B16 (melanoma) cells = assay: MTT cytotoxicity assay, B16 cells
# L1210 (lymphoma) cells = assay: MTT cytotoxicity assay, L1210 cells
# [1] = system: MDA-MB-435 cancer cell line; assay: SRB antiproliferative assay, MDA-MB-435; assay type: cell-based, human; conditions: Homo sapiens, MDA-MB-435, 48 h exposure
# [2] = Aqueous solubility (MultiScreen Solubility Filter Plate, shake-flask based); conditions: aqueous buffer with 5% DMSO, pH 7.4, aqueous with cosolvent or surfactant or cyclodextrin, kinetic from dmso stock
# Procedure: Aqueous solubility of Compounds of the Invention was measured with a modified version of the MultiScreen Solubility Filter Plate protocol (Millipore). This assay was based on the shake-flask equilibrium method and utilizes UV-Vis spectroscopy to quantify the unknown samples. The assay was conducted at room temperature at pH 7.4. […] Compound of the Invention was dissolved in DMSO, and the final DMSO concentration was 5% (v/v). Each sample was analyzed by UV-Vis spectroscopy at 10 nm increments from 260-600 nm to determine the optimal wavelength for detection and construct standard curves. […] A 4:1 mixture of supernatant to acetonitrile was added to a 96-well acrylic plate and analyzed by UV-Vis spectroscopy.
# Aqueous solubility was measured with a modified version of the MultiScreen Solubility Filter Plate protocol (Millipore). This assay is based on the shake-flask equilibrium method and utilizes UV-Vis spectroscopy to quantify the unknown samples. The assay is conducted at room temperature at pH 7.4. […] Each compound was dissolved in DMSO, and the final DMSO concentration was 5% (v/v). Each sample was analyzed by UV-Vis spectroscopy at 10 nm increments from 260-600 nm to determine the optimal wavelength for detection and construct standard curves. […] A 4:1 mixture of supernatant to acetonitrile was added to a 96-well acrylic plate and analyzed by UV-Vis spectroscopy.
# [3] = Mus musculus, B16, 72 h, read-out: IC50 (μM) B16, 72 h exposure, MTT, mean of three independent experiments
# [4] = Mus musculus, L1210, 72 h, read-out: IC50 (μM) L1210, 72 h exposure, MTT, mean of three independent experiments
# [5] = read-out: IC50 (μM) B16, 72 h exposure, MTT, mean of three independent experiments
# [6] = read-out: IC50 (μM) L1210, 72 h exposure, MTT, mean of three independent experiments
Compound,IC50 (B16 (melanoma) cells; [3]) [µM],IC50 (L1210 (lymphoma) cells; [4]) [µM],further results
CC(C)N1C/C(=C\c2ccc([N+](=O)[O-])cc2)C(=O)/C(=C/c2ccc([N+](=O)[O-])cc2)C1 [IC-3],3.7 ± 0.6,0.9 ± 0.6,–
O=C1/C(=C/c2ccc([N+](=O)[O-])cc2)CNC/C1=C\c1ccc([N+](=O)[O-])cc1 [IA-3],15,0.3,–
O=C1/C(=C/c2ccccc2)CN(Cc2ccccc2)C/C1=C\c1ccccc1 [ID-1],3.1 ± 0.1,3.4 ± 0.5,–
"O=C1/C(=C/c2ccc([N+](=O)[O-])cc2)CN(c2ccccc2)C/C1=C\c1ccc([N+](=O)[O-])cc1 [IE-3, 3,5-Di(4-nitrobenzylidene)-1-phenylpiperidin-4-one]",–,–,melting point: 184 to 188 °C; IC50 (B16 (melanoma) cells; [5]): 65 ± 7 µM; IC50 (L1210 (lymphoma) cells; [6]): 65 ± 7 µM
COc1cc(/C=C2\CNC/C(=C\c3ccc(O)c(OC)c3)C2=O)ccc1O [IA-6],1.3 ± 0.6,0.9 ± 0.4,–
COc1ccc(/C=C2\CN(Cc3ccccc3)C/C(=C\c3ccc(OC)cc3)C2=O)cc1 [ID-4],27,8,–
COc1ccc(/C=C2\CN(C)C/C(=C\c3ccc(OC)c(OC)c3)C2=O)cc1OC [IB-7],1.3 to 2.1,0.8 to 1.9,IC50 (B16 (melanoma) cells; [5]): 1.3 ± 0.1 µM; IC50 (L1210 (lymphoma) cells; [6]): 1 ± 0.6 µM
Cc1ccc(/C=C2\CNC/C(=C\c3ccc(C)cc3)C2=O)cc1 [IB-2],–,–,IC50 (B16 (melanoma) cells; [5]): 41 ± 6 µM; IC50 (L1210 (lymphoma) cells; [6]): 35 ± 5 µM
COc1cc(/C=C2\CN(C)C/C(=C\c3cc(OC)c(OC)c(OC)c3)C2=O)cc(OC)c1OC [IB-8],0.31,0.37,"IC50 [1]: 0.19 µM; IC50 (B16 (melanoma) cells; read-out: IC50 (μM) B16, 72 h exposure, MTT, mean of three independent experiments, listed as 5 h): ~0.3 µM; IC50 (L1210 (lymphoma) cells; read-out: IC50 (μM) L1210, 72 h exposure, MTT, mean of three independent experiments, listed as 5 h): ~0.3 µM; solubility at 6 h [2]: 160 ± 30 µM"
"COc1ccc(/C=C2\CN(c3ccccc3)C/C(=C\c3ccc(OC)cc3)C2=O)cc1 [IE-4, 3,5-Di(4-methoxybenzylidene)-1-phenylpiperidin-4-one]",25 to 65,–,melting point: 152 to 155 °C; IC50 (B16 (melanoma) cells; [5]): 37 ± 6 µM; IC50 (L1210 (lymphoma) cells; [6]): 55 ± 7 µM
O=C1/C(=C/c2ccc([N+](=O)[O-])cc2)CN(Cc2ccccc2)C/C1=C\c1ccc([N+](=O)[O-])cc1 [ID-3],2.5 ± 0.7,2 ± 1,–
"COc1ccc(/C=C2\CN(c3ccccc3)C/C(=C\c3ccc(OC)c(O)c3)C2=O)cc1O [IE-5, 3,5-Di(3-hydroxy-4-methoxybenzylidene)-1-phenylpiperidin-4-one]",19,6,melting point: 142 to 146 °C
COc1cc(/C=C2\CN(C)C/C(=C\c3ccc(O)c(OC)c3)C2=O)ccc1O [IB-6],1.3 to 2.1,–,IC50 (B16 (melanoma) cells; [5]): 1.8 ± 0.3 µM; IC50 (L1210 (lymphoma) cells; [6]): 1.9 ± 0.4 µM
COc1ccc(/C=C2\CNC/C(=C\c3ccc(OC)c(OC)c3)C2=O)cc1OC [IA-7],2.3 ± 0.5,0.6 ± 0.2,–
CN1C/C(=C\c2ccc([N+](=O)[O-])cc2)C(=O)/C(=C/c2ccc([N+](=O)[O-])cc2)C1 [IB-3],–,1.3,"IC50 (B16 (melanoma) cells; [5]): 41 ± 2 µM; IC50 (B16 (melanoma) cells; read-out: IC50 (μM) B16, 72 h exposure, MTT, mean of three independent experiments, listed as 5c): 4 µM"
COc1cc(/C=C2\CN(C(C)C)C/C(=C\c3cc(OC)c(OC)c(OC)c3)C2=O)cc(OC)c1OC [IC-8],25 to 65,25 to 65,"IC50 (B16 (melanoma) cells; read-out: IC50 (μM) B16, 72 h exposure, MTT, mean of three independent experiments, listed as 6h): 25.6 µM; IC50 (L1210 (lymphoma) cells; read-out: IC50 (μM) L1210, 72 h exposure, MTT, mean of three independent experiments, listed as 6h): 47 µM and 47.1 µM"
COc1cc(/C=C2\CN(Cc3ccccc3)C/C(=C\c3ccc(O)c(OC)c3)C2=O)ccc1O [ID-6],2 ± 0.5,2.8 ± 0.4,–
COc1ccc(/C=C2\CN(C)C/C(=C\c3ccc(OC)c(O)c3)C2=O)cc1O [IB-5],1.3 to 2.1,0.8 to 1.9,IC50 (B16 (melanoma) cells; [5]): 2.1 ± 0.1 µM; IC50 (L1210 (lymphoma) cells; [6]): 0.8 ± 0.4 µM

Compound,IC50 (B16 (melanoma) cells; [3]) [µM],IC50 (L1210 (lymphoma) cells; [4]) [µM],further results
COc1ccc(/C=C2\CNC/C(=C\c3ccc(OC)c(O)c3)C2=O)cc1O [IA-5],3 ± 1,0.9 ± 0.3,–
COc1ccc(/C=C2\CN(C)C/C(=C\c3ccc(OC)cc3)C2=O)cc1 [IB-4],23,62,–
COc1cc(/C=C2\CN(C(C)C)C/C(=C\c3ccc(O)c(OC)c3)C2=O)ccc1O [IC-6],2.2 ± 0.2,2.2 ± 0.2,–
COc1ccc(/C=C2\CN(Cc3ccccc3)C/C(=C\c3ccc(OC)c(O)c3)C2=O)cc1O [ID-5],2.4 ± 0.5,3.1 ± 0.1,–
O=C1/C(=C/c2ccccc2)CNC/C1=C\c1ccccc1 [IA-1],5 ± 1,0.5,"IC50 (μM) B16 (B16 (melanoma) cells; 72 h exposure, MTT, mean of three independent experiments): _Ta"
COc1cc(/C=C2\CN(Cc3ccccc3)C/C(=C\c3cc(OC)c(OC)c(OC)c3)C2=O)cc(OC)c1OC [ID-8],2.4,3.6,IC50 [1]: 0.76 µM; solubility at 6 h [2]: 210 ± 20 µM
COc1ccc(/C=C2\CNC/C(=C\c3ccc(OC)cc3)C2=O)cc1 [IA-4],25 to 65,–,"IC50 (B16 (melanoma) cells; read-out: IC50 (μM) B16, 72 h exposure, MTT, mean of three independent experiments, listed as 4d): 43 µM; IC50 (L1210 (lymphoma) cells; [6]): 35 ± 8 µM"
"COc1ccc(/C=C2\CN(C(C)C)C/C(=C\c3ccc(OC)c(O)c3)C2=O)cc1O [IC-5, 3,5-Di(3-hydroxy-4-methoxylbenzyliden)-1-isopropylpiperidin-4-one]",1.1,0.4,melting point: 165 to 168 °C
Cc1ccc(/C=C2\CN(C(C)C)C/C(=C\c3ccc(C)cc3)C2=O)cc1 [IC-2],4 ± 2,2.5 ± 0.7,–
"Cc1ccc(/C=C2\CN(c3ccccc3)C/C(=C\c3ccc(C)cc3)C2=O)cc1 [IE-2, 3,5-Di(4-methylbenzylidene)-1-phenylpiperidin-4-one]",> 100,> 100,melting point: 173 to 176 °C
"COc1ccc(/C=C2\CN(c3ccccc3)C/C(=C\c3ccc(OC)c(OC)c3)C2=O)cc1OC [IE-7, 3,5-Di(3,4-dimethoxybenzylidene)-1-phenylpiperidin-4-one]",1.3 ± 0.1,2.9 ± 0.9,melting point: 144 to 148 °C
O=C1/C(=C/c2ccccc2)CN(c2ccccc2)C/C1=C\c1ccccc1 [IE-1],7,4 ± 2,–
Cc1ccc(/C=C2\CN(Cc3ccccc3)C/C(=C\c3ccc(C)cc3)C2=O)cc1 [ID-2],14,9,–
CN1C/C(=C\c2ccccc2)C(=O)/C(=C/c2ccccc2)C1 [IB-1],5 ± 2,2.4 ± 0.3,–
COc1cc(/C=C2\CNC/C(=C\c3cc(OC)c(OC)c(OC)c3)C2=O)cc(OC)c1OC [IA-8],0.3,0.32,"IC50 [1]: 0.088 µM; IC50 (L1210 (lymphoma) cells; read-out: IC50 (μM) L1210, 72 h exposure, MTT, mean of three independent experiments, listed as 4h): ~0.3 µM; solubility at 6 h [2]: 70 ± 10 µM"
Cc1ccc(/C=C2\CNC/C(=C\c3ccc(C)cc3)C2=O)cc1 [IA-2],–,–,IC50 (B16 (melanoma) cells; [5]): 8 ± 4 µM; IC50 (L1210 (lymphoma) cells; [6]): 3.1 ± 0.1 µM
"COc1cc(/C=C2\CN(c3ccccc3)C/C(=C\c3ccc(O)c(OC)c3)C2=O)ccc1O [IE-6, 3,5-Di(4-hydroxy-3-methoxybenzylidene)-1-phenylpiperidin-4-one]",2.9 ± 0.4,2.8 ± 0.4,melting point: 139 to 143 °C
COc1ccc(/C=C2\CN(Cc3ccccc3)C/C(=C\c3ccc(OC)c(OC)c3)C2=O)cc1OC [ID-7],2 ± 0.4,3.3 ± 0.1,"IC50 (B16 (melanoma) cells; read-out: IC50 (μM) B16, 72 h exposure, MTT, mean of three independent experiments, listed as 7g): 2.5 ± 0.4 µM"
